In patent US10774051B2, “6-membered heterocyclic derivatives and pharmaceutical composition comprising the same” (Shionogi & Co., Ltd., priority 2015, dated 2020):

These molecules were tested against human P2X7 receptor (Homo sapiens, UniProt Q99572, R270H/Y155H) (assay: Evaluation of human P2X7 receptor inhibitory activity (Yo-Pro uptake, BzATP stimulation, FLIPR TETRA)). Settings: 1321N1 cells stably expressing human P2X7 receptor; BzATP stimulation, Yo-Pro uptake; read-out: IC50 (antagonistic activity for the human P2X7 receptor).
Format: cell-based
Outline: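 1321N1 cells stably expressing human P2X7 (T606C/G952A SNP variant), in HBSS buffer pH 7.4-7.5 with Yo-Pro, stimulated with BzATP; compound added 8 min after agonist. Fluorescence followed for 20 min on FLIPR; max-minus-min change gave % inhibition, IC50 by logistic fit.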

`COc1cn(Cc2ccc(F)c(Cl)c2)c(N[C@@H]2CCc3ccccc32)nc1=O` [Compound I-0335] and `COc1cn(Cc2ccc(F)c(Cl)c2)c(N[C@@H]2CCCc3ccccc32)nc1=O` [Compound I-0336] are within 1.5-fold of each other in IC50: 170 nM for the first, 120 nM for the second.

First: COc1cn(Cc2cc(F)c(F)cc2F)c(Nc2cccc(Cl)c2C)nc1=O [Compound I-0347]
Second: COc1cn(Cc2ccc(F)c(Cl)c2)c(Nc2cc(C)c(C)cc2C)nc1=O [Compound I-0358]
The IC50 of the first is 8-fold lower: 20 nM for the first, 160 nM for the second.

`Cc1cc2c(cc1Nc1nc(=O)c(F)cn1Cc1ccccc1)OCCO2` [Compound I-0366] and `Cc1cc2c(cc1Nc1nc(=O)c(Cl)cn1Cc1ccccc1)OCCO2` [Compound I-0370] are within 1.5-fold of each other in IC50: 35 nM for the first, 47 nM for the second.

`Cc1cc2c(cc1Nc1nc(=O)c(F)cn1Cc1ccc(F)cc1)OCCO2` [Compound I-0367] and `CCOc1cc(C)c(Nc2nc(=O)c(OC)cn2Cc2cc(F)cc(Cl)c2)cc1C` [Compound I-0384] are within 1.5-fold of each other in IC50: 13 nM for the first, 10 nM for the second.

`COc1cn(Cc2ccccc2)c(Nc2ccccc2SC)nc1=O` [Compound I-0382] showed an IC50 of 350 nM.

Same assay, conditions: 1321N1 cells stably expressing human P2X7 receptor; BzATP stimulation, Yo-Pro uptake; read-out: IC50 (antagonistic activity for the human P2X7 receptor), class symbol

First: COc1cc(C)c(Nc2nc(=O)c(Cl)cn2Cc2ccccc2)cc1OC [Compound I-0310]
Second: CCc1cc(OC)c(OC)cc1Nc1nc(=O)c(Cl)cn1Cc1ccccc1 [Compound I-0351]
The IC50 of the first is higher: 10 to 100 nM for the first, less than 10 nM for the second.

First: COc1cn(Cc2c(F)cccc2F)c(Nc2cccc(Cl)c2C)nc1=O [Compound I-0311]
Second: COc1cn(Cc2cc(F)ccc2F)c(Nc2cccc(Cl)c2C)nc1=O [Compound I-0328]
The IC50 of the first is higher: 100 to 500 nM for the first, 10 to 100 nM for the second. The second is the more potent here.

Compared with `COc1cn(Cc2cccc(Cl)c2)c(Nc2cccc(C)c2C)nc1=O` [Compound I-0312], `COc1cn(Cc2cccc(F)c2)c(Nc2cccc(C)c2C)nc1=O` [Compound I-0323] is lower in IC50: 10 to 100 nM for the first, less than 10 nM for the second. The second is the more potent here.

`Cc1ccc(N2CCCS2(=O)=O)cc1Nc1nc(=O)c(Cl)cn1Cc1ccccc1` [Compound I-0313] and `COc1cn(Cc2ccccc2)c(Nc2cc(N3CCCC3=O)ccc2C)nc1=O` [Compound I-0393] fall in the same range of IC50: 10 to 100 nM for the first, 10 to 100 nM for the second.

`CCc1c(Nc2nc(=O)c(F)cn2Cc2ccc(F)cc2)cc(OC)cc1OC` [Compound I-0314] and `CCc1c(Nc2nc(=O)c(F)cn2Cc2ccc(F)c(Cl)c2)cc(OC)cc1OC` [Compound I-0316] cannot be ordered by IC50: less than 10 nM for the first, less than 10 nM for the second.

`CCc1c(Nc2nc(=O)c(F)cn2Cc2cccc(Cl)c2)cc(OC)cc1OC` [Compound I-0315] and `CCc1c(Nc2nc(=O)c(OC)cn2Cc2cccc(Cl)c2)cc(OC)cc1OC` [Compound I-0362] cannot be ordered by IC50: less than 10 nM for the first, less than 10 nM for the second.

First: COc1cn(Cc2cc(Cl)cc(Cl)c2)c(Nc2cccc(Cl)c2C)nc1=O [Compound I-0317]
Second: COc1cn(Cc2ccc(F)c(Cl)c2)c(Nc2cccc(C)c2C)nc1=O [Compound I-0325]
The IC50 of the first is higher: 100 to 500 nM for the first, less than 10 nM for the second. The second is the more potent here.

`COc1cc(C)c(Nc2nc(=O)c(F)cn2Cc2ccccc2)cc1C` [Compound I-0318] and `COc1cc(C)c(Nc2nc(=O)c(F)cn2Cc2cccc(Cl)c2)cc1C` [Compound I-0348] cannot be ordered by IC50: less than 10 nM for the first, less than 10 nM for the second.

`COc1cc(C)c(Nc2nc(=O)c(F)cn2Cc2ccc(F)cc2)cc1C` [Compound I-0319] and `COc1cc(C)c(Nc2nc(=O)c(F)cn2Cc2ccc(F)c(Cl)c2)cc1C` [Compound I-0349] cannot be ordered by IC50: less than 10 nM for the first, less than 10 nM for the second.

First: COc1cn(Cc2ccccc2)c(Nc2cc(OC(C)C)ccc2C)nc1=O [Compound I-0320]
Second: COc1cn(Cc2ccccc2)c(Nc2cc(Br)ccc2C)nc1=O [Compound I-0386]
The IC50 of the first is higher: 100 to 500 nM for the first, 10 to 100 nM for the second.

Compared with `COc1cn(Cc2ccc(F)c(Cl)c2)c(Nc2cc(OC(C)C)ccc2C)nc1=O` [Compound I-0321], `COc1cn(Cc2ccc(F)c(Cl)c2)c(Nc2cc(C)ccc2C)nc1=O` [Compound I-0334] is lower in IC50: 10 to 100 nM for the first, less than 10 nM for the second.

`CCc1ccccc1Nc1nc(=O)c(OC)cn1Cc1cccc(Cl)c1` [Compound I-0322] and `CCc1ccc(Cl)cc1Nc1nc(=O)c(OC)cn1Cc1cccc(Cl)c1` [Compound I-0387] fall in the same range of IC50: 10 to 100 nM for the first, 10 to 100 nM for the second.

`COc1cn(Cc2ccc(F)c(F)c2)c(Nc2cccc(C)c2C)nc1=O` [Compound I-0324] and `COc1cn(Cc2cc(F)cc(F)c2)c(Nc2cccc(C)c2C)nc1=O` [Compound I-0326] cannot be ordered by IC50: less than 10 nM for the first, less than 10 nM for the second.

First: CCc1ccccc1Nc1nc(=O)c(OC)cn1Cc1cc(F)cc(F)c1 [Compound I-0327]
Second: COc1cn(Cc2ccccc2)c(Nc2cc(F)c(F)cc2C)nc1=O [Compound I-0359]
The IC50 of the first is lower: 10 to 100 nM for the first, 500 to 1000 nM for the second. The first is the more potent here.

`COc1cn(Cc2ccc(F)cc2F)c(Nc2cccc(Cl)c2C)nc1=O` [Compound I-0329] and `COCc1cccc(Nc2nc(=O)c(OC)cn2Cc2ccc(F)c(Cl)c2)c1C` [Compound I-0353] fall in the same range of IC50: 10 to 100 nM for the first, 10 to 100 nM for the second.

`CNC(=O)Cc1cn(Cc2ccccc2)c(Nc2cccc(Cl)c2C)nc1=O` [Compound I-0330] and `Cc1c(Cl)cccc1Nc1nc(=O)c(CC(=O)NCC#N)cn1Cc1ccccc1` [Compound I-0344] fall in the same range of IC50: 100 to 500 nM for the first, 100 to 500 nM for the second.

`Cc1c(Cl)cccc1Nc1nc(=O)c(CC(=O)N(C)C)cn1Cc1ccccc1` [Compound I-0331] and `Cc1c(Cl)cccc1Nc1nc(=O)c(CC(=O)NCCO)cn1Cc1ccccc1` [Compound I-0337] fall in the same range of IC50: 100 to 500 nM for the first, 100 to 500 nM for the second.

`COc1cn(Cc2ccc(F)cc2)c(Nc2cc(C)ccc2C)nc1=O` [Compound I-0332] and `COc1cn(Cc2ccc(F)cc2)c(Nc2ccc(C)cc2C)nc1=O` [Compound I-0375] fall in the same range of IC50: 10 to 100 nM for the first, 10 to 100 nM for the second.

`COc1cn(Cc2cccc(Cl)c2)c(Nc2cc(C)ccc2C)nc1=O` [Compound I-0333] and `COc1cn(Cc2cccc(Cl)c2)c(Nc2ccc(C)cc2C)nc1=O` [Compound I-0374] fall in the same range of IC50: 10 to 100 nM for the first, 10 to 100 nM for the second.

`Cc1c(Cl)cccc1Nc1nc(=O)c(CC(=O)NC2CCOCC2)cn1Cc1ccccc1` [Compound I-0338] and `Cc1c(Cl)cccc1Nc1nc(=O)c(CC(=O)NC2COC2)cn1Cc1ccccc1` [Compound I-0342] fall in the same range of IC50: 100 to 500 nM for the first, 100 to 500 nM for the second.

`Cc1c(Cl)cccc1Nc1nc(=O)c(CC(=O)N2CCOCC2)cn1Cc1ccccc1` [Compound I-0339] and `COCCNC(=O)Cc1cn(Cc2ccccc2)c(Nc2cccc(Cl)c2C)nc1=O` [Compound I-0340] fall in the same range of IC50: 100 to 500 nM for the first, 100 to 500 nM for the second.

Compared with `Cc1c(Cl)cccc1Nc1nc(=O)c(CC(=O)NCc2ccccc2)cn1Cc1ccccc1` [Compound I-0341], `COc1cn(Cc2ccccc2)c(Nc2cccc3c(=O)[nH]ccc23)nc1=O` [Compound I-0392] is lower in IC50: 100 to 500 nM for the first, 10 to 100 nM for the second. The second is the more potent here.

`COc1cc(C)c(Nc2nc(=O)c(Cl)cn2Cc2ccc(F)c(Cl)c2)cc1OC` [Compound I-0345] and `COc1cc(C)c(Nc2nc(=O)c(Cl)cn2Cc2cccc(Cl)c2)cc1OC` [Compound I-0346] cannot be ordered by IC50: less than 10 nM for the first, less than 10 nM for the second.

`CCc1cc(OC)c(OC)cc1Nc1nc(=O)c(F)cn1Cc1cccc(Cl)c1` [Compound I-0350] and `CCc1ccc(Cl)cc1Nc1nc(=O)c(OC)cn1Cc1ccc(F)c(Cl)c1` [Compound I-0389] cannot be ordered by IC50: less than 10 nM for the first, less than 10 nM for the second.

`COCc1cccc(Nc2nc(=O)c(OC)cn2Cc2ccccc2)c1C` [Compound I-0352] and `COCc1ccccc1Nc1nc(=O)c(OC)cn1Cc1ccc(F)c(Cl)c1` [Compound I-0356] fall in the same range of IC50: 100 to 500 nM for the first, 100 to 500 nM for the second.

`COc1cn(Cc2cc(F)cc(F)c2)c(Nc2cc(C)c(OC(F)F)cc2C)nc1=O` [Compound I-0355] and `CCOc1cc(C)c(Nc2nc(=O)c(OC)cn2Cc2cc(F)cc(F)c2)cc1C` [Compound I-0383] cannot be ordered by IC50: less than 10 nM for the first, less than 10 nM for the second.

First: COc1cn(Cc2ccccc2)c(Nc2cc(C)c(C)cc2C)nc1=O [Compound I-0357]
Second: COc1cn(Cc2cc(F)cc(Cl)c2)c(Nc2cc(C)c(C)cc2C)nc1=O [Compound I-0381]
The IC50 of the first is higher: 500 to 1000 nM for the first, less than 10 nM for the second.

Compared with `COc1cn(Cc2ccc(F)c(Cl)c2)c(Nc2cc(F)c(F)cc2C)nc1=O` [Compound I-0360], `COc1cn(Cc2ccc(F)c(Cl)c2)c(Nc2ccc(C)cc2C)nc1=O` [Compound I-0376] is lower in IC50: 10 to 100 nM for the first, less than 10 nM for the second.

`CCc1c(Nc2nc(=O)c(OC)cn2Cc2ccccc2)cc(OC)cc1OC` [Compound I-0361] and `CCc1c(Nc2nc(=O)c(OC)cn2Cc2ccc(F)c(Cl)c2)cc(OC)cc1OC` [Compound I-0363] cannot be ordered by IC50: less than 10 nM for the first, less than 10 nM for the second.

First: COc1cn(Cc2ccccc2)c(Nc2ccc(OC(F)F)cc2C)nc1=O [Compound I-0364]
Second: COc1cn(Cc2ccccc2)c(Nc2cc(C)cc3[nH]ccc23)nc1=O [Compound I-0390]
The IC50 of the first is higher: 100 to 500 nM for the first, 10 to 100 nM for the second. The second is the more potent here.

First: Cc1cc2c(cc1Nc1nc(=O)c(F)cn1Cc1cccc(Cl)c1)OCCO2 [Compound I-0368]
Second: Cc1cc2c(cc1Nc1nc(=O)c(F)cn1Cc1ccc(F)c(Cl)c1)OCCO2 [Compound I-0369]
The IC50 of the first is higher: 10 to 100 nM for the first, less than 10 nM for the second. The second is the more potent here.

`COc1cc(C)cc(Nc2nc(=O)c(OC)cn2Cc2cc(F)cc(F)c2)c1C` [Compound I-0371] and `COc1cc(C)cc(Nc2nc(=O)c(OC)cn2Cc2cc(F)cc(Cl)c2)c1C` [Compound I-0395] cannot be ordered by IC50: less than 10 nM for the first, less than 10 nM for the second.

`COc1cn(Cc2cc(F)cc(F)c2)c(Nc2cc(C)c(C)cc2C)nc1=O` [Compound I-0377] and `COc1cn(Cc2cc(F)cc(F)c2)c(Nc2cc(C)c(Cl)cc2C)nc1=O` [Compound I-0378] cannot be ordered by IC50: less than 10 nM for the first, less than 10 nM for the second.

First: COc1cn(Cc2ccc(F)c(Cl)c2)c(Nc2cc(-c3nnco3)ccc2C)nc1=O [Compound I-0379]
Second: Cc1ccc(-c2nnco2)cc1Nc1nc(=O)c(F)cn1Cc1ccc(F)c(F)c1 [Compound I-0380]
The IC50 of the first is lower: less than 10 nM for the first, 10 to 100 nM for the second. The first is the more potent here.

First: COc1cn(Cc2cc(F)cc(Cl)c2)c(Nc2cc(C)c(Cl)cc2C)nc1=O [Compound I-0385]
Second: COc1cn(Cc2ccc(F)c(Cl)c2)c(Nc2cc(C)cc3[nH]ccc23)nc1=O [Compound I-0396]
The IC50 of the first is higher: 10 to 100 nM for the first, less than 10 nM for the second. The second is the more potent here.

First: CCc1ccc(Cl)cc1Nc1nc(=O)c(OC)cn1Cc1ccc(F)cc1 [Compound I-0388]
Second: COc1ccc(Nc2nc(=O)c(OC)cn2Cc2ccc(F)c(Cl)c2)c(C)c1C [Compound I-0394]
The IC50 of the first is higher: 10 to 100 nM for the first, less than 10 nM for the second.
